Where two headings read alike, the source gives them in different places. Blank lines part the entries; values can stand above or below the compound they belong to.
Experiments:
[1] = Stability of canagliflozin in rat plasma samples (QC samples); type: in vitro ADME; details: for Concentration found after storage (Mean ± SD): rat plasma, n = 5
Procedure: High, medium and low levels of QC concentrations were used to evaluate the stability of canagliflozin in plasma under the experimental conditions.
The specificity of the method was evaluated by comparing the chromatography of rat blank plasma samples with blank rat plasma spiked with standards at high, medium, low concentrations including LLOQ and rat plasma samples after oral administration of canagliflozin. The intra-day accuracy and precision were determined by analyzing five replicates of the QC samples at high, medium, and low concentrations within one day, while the inter-day accuracy and precision were conducted by determining five replicates of four levels of QCs on 3 separate days. The assay’s accuracy was represented by the […]. The precision was represented as the relative standard deviation (RSD) of the replicates. The matrix effect was determined by dividing the peak areas of canagliflozin spiked into extracted blank plasma by that of the analyte spiked in the mobile phase. The extraction recovery of canagliflozin and IS was assessed by comparing the peak areas of extracted plasma. […] […] The freeze (−80 °C)–thaw (room temperature) stability of the analytes in rat plasma was tested via three freeze–thaw cycles. […] In regard to the storage stability, the QC samples were prepared and stored at −80 °C for 30 days.

[2] = Plasma pharmacokinetics of canagliflozin and its metabolites after oral administration to CTRL and type 2 diabetic (DM) rats, UPLC-MS/MS; type: in vivo, rat; details: for AUC(0-inf) / Tmax / MRT last / half-life / Cmax: po; for AUC(0-inf): AUC0–∞, heading: AUC0–∞; for MRT last: read-out: MRT0–t; for half-life: read-out: t1/2z (converted); for Cmax: metabolites semi-quantitative; for Concentration of metabolite in rat plasma (in words): rat plasma after canagliflozin, UPLC-TOF-MS/MS identification
Description: The determination of metabolite concentrations was done by a semi-quantitative analysis method: the peak area of the metabolites was divided by the peak area of the original drug and then multiplied by the concentration of original drug.
The type 2 diabetic model was developed using a combination of a high-fat diet (HFD) and low-dose STZ injection. Briefly, rats were randomized into CTRL (control) and DM (diabetes mellitus) groups. The CTRL rats received a standard diet, whereas DM rats were fed high-fat food, which consisted of 63.5–66.5% normal chow, 1% cholesterol, 0.5% sodium cholate, 10% yolk, 12–15% lard, and 10% sucrose. DM rats were given an intraperitoneal injection of STZ (35 mg/kg, dissolved in citrate buffer, pH 4.5) after 4 weeks of dietary alteration, and CTRL rats received an equivalent injection of citrate buffer only. The blood glucose concentrations, food intake, and body weights of the rats were monitored weekly. Rats with non-fasting blood glucose levels lower than 16.67 mmol/L (300 mg/dL) were excluded from the DM group. Biochemical parameters (serum triglycerides, serum total cholesterol, and insulin) were measured on day 28 after the injection of STZ. The homeostasis model assessment of insulin resistance (HOMA-IR) was calculated by a standard equation to examine insulin sensitivity. The following experiments were performed on day 35 after STZ injection.
We performed the pharmacokinetic studies of canagliflozin after oral administration by gavage, and all rats used in this research were fasted for 12 h before dosing. CTRL and DM group rats (5 rats in each group) received a dose of canagliflozin at 20 mg/kg that was suspended in 0.5% sodium carboxymethylcellulose. A blood quantity of less than 0.3 mL was sampled via the oculi chorioideae vein after administration of canagliflozin at 1, 2, 3, 4, 5, 6, 7, 8, 10, 12, 24, 36 and 48 h under light ether anesthesia. All blood samples were immediately centrifuged at 5000 rpm for 10 min and the plasma was collected and frozen at −40 °C until analysis.
The acquisition software used were Analyst TF 1.7.1 software and Analyst software (AB Sciex, Redwood city, CA, USA). The pharmacokinetic parameters were processed by non-compartmental analysis using DAS 2.1.1 software (Mathematical Pharmacology Professional Committee of China, Shanghai, China). Data are presented as means ± SDs. Statistical differences were evaluated by Student’s t-test. A p-value of less than 0.05 indicated a statistically significant difference (SPSS 18.0 software, SPSS Inc., Chicago, IL, USA).

[3] = rat, plasma, 20 mg/kg, CTRL rats, canagliflozin 20 mg/kg oral, mean ± SD, n = 5
[4] = rat, plasma, 20 mg/kg, DM (type 2 diabetic) rats, canagliflozin 20 mg/kg oral, mean ± SD, n = 5

SMILES: Cc1ccc([C@@H]2O[C@H](CO)[C@@H](O)[C@H](O)[C@H]2O)cc1Cc1ccc(-c2ccc(F)cc2)s1 [Canagliflozin]
- Stability in rat plasma (in words) ([1]; auto-sampler temperature (4 °C), 24 h): good stability
- Concentration found after storage (Mean ± SD) ([1]; autosampler (4 °C) for 24 h, nominal concentration 25): 25.7 ± 0.33 ng/mL
- Concentration found after storage (Mean ± SD) ([1]; autosampler (4 °C) for 24 h, nominal concentration 500): 503.1 ± 4.41 ng/mL
- Concentration found after storage (Mean ± SD) ([1]; autosampler (4 °C) for 24 h, nominal concentration 800): 806.8 ± 5.64 ng/mL
- Concentration found after storage (Mean ± SD) ([1]; room temperature (25 °C) for 24 h, nominal concentration 25): 26.2 ± 0.96 ng/mL
- Concentration found after storage (Mean ± SD) ([1]; room temperature (25 °C) for 24 h, nominal concentration 500): 504.4 ± 3.18 ng/mL
- Concentration found after storage (Mean ± SD) ([1]; room temperature (25 °C) for 24 h, nominal concentration 800): 807.3 ± 6.12 ng/mL
- Concentration found after storage (Mean ± SD) ([1]; three freeze–thaw cycles (each at −80 °C for 24 h), nominal concentration 25): 26 ± 1.02 ng/mL
- Concentration found after storage (Mean ± SD) ([1]; three freeze–thaw cycles (each at −80 °C for 24 h), nominal concentration 500): 505.2 ± 4.12 ng/mL
- Concentration found after storage (Mean ± SD) ([1]; three freeze–thaw cycles (each at −80 °C for 24 h), nominal concentration 800): 806.2 ± 4.19 ng/mL
- Concentration found after storage (Mean ± SD) ([1]; −80 °C for 30 days, nominal concentration 25): 26.9 ± 0.85 ng/mL
- Concentration found after storage (Mean ± SD) ([1]; −80 °C for 30 days, nominal concentration 500): 504.3 ± 2.14 ng/mL
- Concentration found after storage (Mean ± SD) ([1]; −80 °C for 30 days, nominal concentration 800): 806.3 ± 3.51 ng/mL
- Stability in rat plasma (in words) ([1]; room temperature (25 °C) for 24 h): stable
- Stability in rat plasma (in words) ([1]; storage conditions (−80 °C) for at least 30 days): stable
- Stability in rat plasma (in words) ([1]; −80 °C followed by three freeze and thaw cycles): good stability
- CL/F ([2]; rat, plasma, 20 mg/kg, heading: CLz/F, CTRL rats, canagliflozin 20 mg/kg oral, mean ± SD, n = 5): 5.96 mL/min/kg
- AUC(0-inf) ([2]; rat, plasma, 20 mg/kg, CTRL rats, canagliflozin 20 mg/kg oral, plasma, mean ± SD, n = 5): 56300 ng·h/mL
- AUC(0-inf) ([2]; rat, plasma, 20 mg/kg, DM (type 2 diabetic) rats, canagliflozin 20 mg/kg oral, plasma, mean ± SD, n = 5): 28400 ng·h/mL
- Tmax [2, 3]: 3.6 ± 0.89 h
- MRT last [2, 3]: 14.1 ± 1.58 h
- half-life [2, 3]: 12.9 ± 2.64 h
- Cmax [2, 3]: 3310 ± 566 ng/mL
- Cmax [2, 4]: 2230 ± 559 ng/mL
- Tmax [2, 4]: 3.2 ± 0.45 h
- MRT last [2, 4]: 12.3 ± 2.77 h
- half-life [2, 4]: 10.2 ± 3.49 h

SMILES: Cc1ccc(C2OC(CO)C(O)C(O)C2OC2OC(C(=O)O)C(O)C(O)C2O)cc1Cc1ccc(-c2ccc(F)cc2)s1 (stereo not shown) [M5]
- Concentration of metabolite in rat plasma (in words) [2]: high
- Tmax [2, 3]: 1.8 ± 0.84 h
- half-life [2, 3]: 14.6 ± 18.3 h
- Cmax [2, 3]: 126 ± 31.1 ng/mL
- Cmax [2, 4]: 160 ± 54.4 ng/mL
- Tmax [2, 4]: 1.67 ± 0.58 h
- half-life [2, 4]: 13.3 ± 6.25 h

Now from value to compound:

- Concentration of metabolite in rat plasma (in words) [2]: high
- Tmax [2, 3]: 2.02 ± 0.11 h
- half-life [2, 3]: 10 ± 6.45 h
- Cmax [2, 3]: 44.9 ± 20.5 ng/mL
- Cmax [2, 4]: 90.6 ± 18.7 ng/mL
- Tmax [2, 4]: 1.81 ± 0.12 h
- half-life [2, 4]: 14.5 ± 4.86 h
SMILES: Cc1ccc(C2OC(CO)C(O)C(OC3OC(C(=O)O)C(O)C(O)C3O)C2O)cc1Cc1ccc(-c2ccc(F)cc2)s1 (stereo not shown) [M7]

- Concentration of metabolite in rat plasma (in words) [2]: almost too low to quantify
SMILES: OCc1ccc([C@@H]2O[C@H](CO)[C@@H](O)[C@H](O)[C@H]2O)cc1Cc1ccc(-c2ccc(F)cc2)s1 [M8]

- Concentration of metabolite in rat plasma (in words) [2]: high
- Tmax [2, 3]: 5.01 ± 0.11 h
- half-life [2, 3]: 10.7 ± 1.63 h
- Cmax [2, 3]: 97.5 ± 10.8 ng/mL
- Cmax [2, 4]: 161 ± 10.5 ng/mL
- Tmax [2, 4]: 4.75 ± 0.5 h
- half-life [2, 4]: 12.8 ± 8.81 h
SMILES: Cc1ccc(C2OC(CO)C(O)C(O)C2O)cc1C(O)c1ccc(-c2ccc(F)cc2)s1 (stereo not shown) [M9]

— PMC6100046, “Plasma Pharmacokinetic Determination of Canagliflozin and Its Metabolites in a Type 2 Diabetic Rat Model by UPLC-MS/MS” (Molecules : A Journal of Synthetic Chemistry and Natural …, 2018)
